Test results published in patent US20070071780A1, “Personal care composition comprising a perfume booster accord” (priority 2005, published 2007).

System: human nose
Experiment: Odor intensity evaluation by panelists and Human Recognition Slope Factor (HRSF) calculation in DPG
Details: for HRSF (Human Recognition Slope Factor = Ii/xi) / Ii (maximum intensity in a given media) / xi (lowest concentration to reach maximum intensity): low hydrophobic media (DPG); for Odor Intensity (I): average of 25 panelists, in DPG
Text: The Human Recognition Slope Factor (HRSF) is a tool in choosing the most efficient high odor value materials to create perfume booster accords. […] The higher the number, the more efficient the material will be.
The HRSF identifies the behavior of perfume materials through the relevant range of concentrations in a given product. The calculation process of the HRSF also defines the concentration where the high odor value material reaches its maximum intensity in a given media.
The HRSF is determined by the following calculations: HRSF=Ii/xi wherein: HRSF=Human Recognition Slope Factor; Ii is the maximum intensity that a high odor value material delivers in a given media; and xi is the lowest concentration of the high odor value material to reach maximum intensity.
The value of Ii and xi are calculated using the following two equations. The first equation (I) describes the intensity of a high odor value material across a broad range of concentrations. The second equation (VI) allows one to find the maximum concentration when both mathematical equations reach the same intensity value. I=a/(1+(x/c)ˆb) (I) wherein: I is the Intensity of the high odor value material; x is the concentration of the material; and a, b, and c are experimental constants for each high odor value material.
The experimental constants of “a, b, and c” are generated by performing a non linear regression analysis using commercially available software. One software package useful in performing the non linear regression analysis is GraphPad Prism 4 for Windows, available from GraphPad Software, Inc., San Diego Calif.
Odor evaluations of each raw material are conducted among at least 25 people. Each material is diluted to a given concentration, and panelists are requested to grade the smell using a numeric scale (Low: 0-15, Slight: 16-30, Moderate: 31-50, Strong: 51-70, Very Strong: 71-up). Internal controls containing Benzyl salicylate, Citronellol and Ethyl 2 Methyl Butyrate are used to define the standard intensity for each range.
An illustration of how the non linear regression analysis works is described below. In the following example, the material Alpha Damascone was used for illustrative purposes. The experimental data from 25 panelists indicate that the average value for each observation of Alpha Damascone in DPG is as follows:
The goal of the software package is to minimize the sum of the squares of the vertical distances of the points from the curve. The software prompts the user to perform the following steps to run an iterative process that allows one to find the values of a, b, and c. The R^2 factor (shown below) will indicate if the objective of minimizing the sum of the squares of the vertical distances of the points from the curve was achieved. The closer the R^2 factor is to 1.0, the better the “best-fit values” will be.
The software generates the curve defined by the initial values, calculates the sum-of-squares (the sum of the squares of the vertical distances of the points from the curve), adjusts the variables to make the curve come closer to the data points, adjusts the variables again so that the curve comes even closer to the points, keeps adjusting the variables until the adjustments make virtually no difference in the sum-of-squares and reports the best-fit results.
The “best fit values” are the “a, b, and c” values used in all the equations described herein. Once the “a, b, and c” values are determined, proceed with the following equations.
By definition, the curve that describes that Intensity and its differential curve will meet at the point where a given material delivers the maximum intensity with the minimum mass. Therefore, the next step is to calculate the intersection point by solving the following equation: (ab(xi/c)ˆb)/(x((x/c)ˆb+1)ˆ2=a/(1+(x/c)ˆb) (V)
Therefore, (ab(xi/c)ˆb)/(xi((xi/c)ˆb+1)ˆ2−a/(1+(xi/c)ˆb)=0 (VI) […]

CC(=O)C(C)=CC1C(C)=CCCC1(C)C (stereo not shown) [3-buten-2-one, 3-methyl-4-(2,6,6-trimethyl-2-cyclohexen-1-yl)]
HRSF (Human Recognition Slope Factor = Ii/xi): 1,204 | Ii (maximum intensity in a given media): 85.50 | xi (lowest concentration to reach maximum intensity): 0.071

C/C=C\C(=O)C1C(C)=CCCC1(C)C (stereo not drawn) [Alpha Damascone]
Odor Intensity (I) (Concentration (X) 0.0004): 5 | Odor Intensity (I) (Concentration (X) 0.0022): 15 | Odor Intensity (I) (Concentration (X) 0.0032): 25 | Odor Intensity (I) (Concentration (X) 0.0044): 35 | Odor Intensity (I) (Concentration (X) 0.0072): 50 | Odor Intensity (I) (Concentration (X) 0.0092): 55 | Odor Intensity (I) (Concentration (X) 0.0170): 60 | HRSF (Human Recognition Slope Factor = Ii/xi): 2,034 | Ii (maximum intensity in a given media): 62.86 | xi (lowest concentration to reach maximum intensity): 0.0309

CC1(C)CCC[C@]2(C)[C@H]3CCO[C@]3(C)CC[C@@H]12 [Ambroxan, (3aR-(3aalpha,5abeta,9aalpha,9bbeta))-dodecahydro-3a,6,6,9a-tetramethyl naphtha(2,1-b)furan]
HRSF (Human Recognition Slope Factor = Ii/xi): 7,675 | Ii (maximum intensity in a given media): 68.31 | xi (lowest concentration to reach maximum intensity): 0.0089

Cc1ccc2c(c1)OCC(=O)CO2 [Calone 1951, Methyl-3,4-dioxy(cylcoacetonyl) benzene]
HRSF (Human Recognition Slope Factor = Ii/xi): 1,030 | Ii (maximum intensity in a given media): 71.88 | xi (lowest concentration to reach maximum intensity): 0.0698

CCCCCCCCCC=O [Decyl Aldehyde]
HRSF (Human Recognition Slope Factor = Ii/xi): 1,098 | Ii (maximum intensity in a given media): 54.35 | xi (lowest concentration to reach maximum intensity): 0.0495

CCOC(=O)CC1(C)OCCO1 [Fructone, ethyl methyl dioxolane acetate]
HRSF (Human Recognition Slope Factor = Ii/xi): 2,243 | Ii (maximum intensity in a given media): 62.36 | xi (lowest concentration to reach maximum intensity): 0.0278

CC(=O)/C=C/C1C(C)=CCCC1(C)C (stereo not shown) [Ionone Apha, 3-buten-2-one, 4-(2,6,6-trimethyl-2-cyclohexen-1-yl), (E)]
HRSF (Human Recognition Slope Factor = Ii/xi): 1,157 | Ii (maximum intensity in a given media): 91.99 | xi (lowest concentration to reach maximum intensity): 0.0795

CC(=O)C=CC1=C(C)CCCC1(C)C [Ionone Beta, 4-(2,6,6-Trimethyl-1-cyclohexenyl)-3-butenone-2]
HRSF (Human Recognition Slope Factor = Ii/xi): 15,451 | Ii (maximum intensity in a given media): 47.90 | xi (lowest concentration to reach maximum intensity): 0.0031

CCCCCCCCCCCC=O [Lauric Ald]
HRSF (Human Recognition Slope Factor = Ii/xi): 1,409 | Ii (maximum intensity in a given media): 67.33 | xi (lowest concentration to reach maximum intensity): 0.0478

CC(=O)OC(C)c1ccccc1 (stereo not shown) [Methyl Phenyl Carbinyl Acetate]
HRSF (Human Recognition Slope Factor = Ii/xi): 756 | Ii (maximum intensity in a given media): 50.63 | xi (lowest concentration to reach maximum intensity): 0.067

CC1=CCC(C=CC(C)(C)C(C)O)C1(C)C (stereo not shown) [Polysantol, 3,3-Dimethyl-5-(2,2,3-trimethyl-3-cycloenten-1-yl)-4-penten-2-ol]
HRSF (Human Recognition Slope Factor = Ii/xi): 690 | Ii (maximum intensity in a given media): 73.16 | xi (lowest concentration to reach maximum intensity): 0.106

CCC(C)(O)CCCC(C)C (stereo not shown) [Tetra Hydro linalool, Tetra Hydro 3,7-Dimethyl-1,6-octadien-3-ol]
HRSF (Human Recognition Slope Factor = Ii/xi): 838 | Ii (maximum intensity in a given media): 53.69 | xi (lowest concentration to reach maximum intensity): 0.0641

CC(=O)OC1CC2CC1C1CC=CC21 (stereo not shown) [Tricyclo decenyl acetate]
HRSF (Human Recognition Slope Factor = Ii/xi): 1,379 | Ii (maximum intensity in a given media): 46.74 | xi (lowest concentration to reach maximum intensity): 0.0339

CC(=O)OC1CCCCC1C(C)(C)C (stereo not shown) [Verdox, ortho tertiary butyl cyclohexanyl acetate]
HRSF (Human Recognition Slope Factor = Ii/xi): 998 | Ii (maximum intensity in a given media): 51.91 | xi (lowest concentration to reach maximum intensity): 0.052

Hexahydro-4,7methano-1H-inden-5(or 6)-yl propionate [Frutene]
HRSF (Human Recognition Slope Factor = Ii/xi): 738 | Ii (maximum intensity in a given media): 80.35 | xi (lowest concentration to reach maximum intensity): 0.1089

Methyl Cedrylone
HRSF (Human Recognition Slope Factor = Ii/xi): 811 | Ii (maximum intensity in a given media): 84.44 | xi (lowest concentration to reach maximum intensity): 0.1041
